# Experimental data: PubChem BioAssay (NCI)
#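 In this assay, cells in 96-well plates receive the compound at five concentrations for 48 hours. Endpoints are linearly interpolated between the surrounding concentrations. TGI marks complete inhibition of growth.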
# Experiments:
# Experiment in all cases: DTP human tumour cell line panel, 48 h
# MDA-N = test system: MDA-N
# M14 melanoma = test system: M14 melanoma
# SN12C renal = test system: SN12C renal
# CAKI-1 renal = test system: CAKI-1 renal
# HCC-2998 colon = test system: HCC-2998 colon
# HCT-15 colon = test system: HCT-15 colon
# SK-MEL-28 melanoma = test system: SK-MEL-28 melanoma
# UACC-62 melanoma = test system: UACC-62 melanoma
# SK-OV-3 ovarian = test system: SK-OV-3 ovarian
# MDA-MB-435 = test system: MDA-MB-435
# LOX IMVI melanoma = test system: LOX IMVI melanoma
# PC-3 prostate = test system: PC-3 prostate
# UACC-257 melanoma = test system: UACC-257 melanoma
# SW-620 colon = test system: SW-620 colon
# RXF 393 renal = test system: RXF 393 renal
# T-47D breast = test system: T-47D breast
# NCI-H522 lung = test system: NCI-H522 lung
# OVCAR-5 ovarian = test system: OVCAR-5 ovarian
# BT-549 breast = test system: BT-549 breast
# MDA-MB-231 breast = test system: MDA-MB-231 breast
# HT29 colon = test system: HT29 colon
# SNB-19 CNS = test system: SNB-19 CNS
# SNB-75 CNS = test system: SNB-75 CNS
# TK-10 renal = test system: TK-10 renal
# MCF7 breast = test system: MCF7 breast
# MALME-3M melanoma = test system: MALME-3M melanoma
# ACHN renal = test system: ACHN renal
# NCI-H226 lung = test system: NCI-H226 lung
# 786-0 renal = test system: 786-0 renal
# SK-MEL-5 melanoma = test system: SK-MEL-5 melanoma
# KM12 colon = test system: KM12 colon
# U251 CNS = test system: U251 CNS
# NCI/ADR-RES ovarian = test system: NCI/ADR-RES ovarian
# COLO 205 colon = test system: COLO 205 colon
# EKVX NSCLC = test system: EKVX NSCLC
# OVCAR-8 ovarian = test system: OVCAR-8 ovarian
# MOLT-4 leukemia = test system: MOLT-4 leukemia
# OVCAR-4 ovarian = test system: OVCAR-4 ovarian
# A498 renal = test system: A498 renal
# NCI-H460 lung = test system: NCI-H460 lung
# SK-MEL-2 melanoma = test system: SK-MEL-2 melanoma
# HCT-116 colon = test system: HCT-116 colon
# OVCAR-3 ovarian = test system: OVCAR-3 ovarian
# K-562 leukemia = test system: K-562 leukemia
# CCRF-CEM leukemia = test system: CCRF-CEM leukemia
# UO-31 renal = test system: UO-31 renal
# HS 578T breast = test system: HS 578T breast
# SF-268 CNS = test system: SF-268 CNS
# HOP-62 NSCLC = test system: HOP-62 NSCLC
# A549 NSCLC = test system: A549 NSCLC
# DU-145 prostate = test system: DU-145 prostate
# IGROV1 ovarian = test system: IGROV1 ovarian
# SR leukemia = test system: SR leukemia
# RPMI-8226 leukemia = test system: RPMI-8226 leukemia
# SF-295 CNS = test system: SF-295 CNS
# HL-60(TB) leukemia = test system: HL-60(TB) leukemia
# NCI-H23 lung = test system: NCI-H23 lung
# HOP-92 NSCLC = test system: HOP-92 NSCLC
# SF-539 CNS = test system: SF-539 CNS
smiles,measurement,setting,value
Cc1ccc(Cc2nn(C)c(=O)n2-n2cccc2)cc1,TGI,MDA-N,> 100 µM
same,TGI,M14 melanoma,> 100 µM
same,TGI,SN12C renal,> 100 µM
same,TGI,CAKI-1 renal,> 100 µM
same,TGI,HCC-2998 colon,> 100 µM
same,TGI,HCT-15 colon,> 100 µM
same,TGI,SK-MEL-28 melanoma,> 100 µM
same,TGI,UACC-62 melanoma,> 100 µM
same,TGI,SK-OV-3 ovarian,> 100 µM
same,TGI,MDA-MB-435,> 100 µM
same,TGI,LOX IMVI melanoma,> 100 µM
same,TGI,PC-3 prostate,> 100 µM
same,TGI,UACC-257 melanoma,> 100 µM
same,TGI,SW-620 colon,> 100 µM
same,TGI,RXF 393 renal,> 100 µM
same,TGI,T-47D breast,> 100 µM
same,TGI,NCI-H522 lung,> 100 µM
same,TGI,OVCAR-5 ovarian,> 100 µM
same,TGI,BT-549 breast,> 100 µM
same,TGI,MDA-MB-231 breast,> 100 µM
same,TGI,HT29 colon,> 100 µM
same,TGI,SNB-19 CNS,> 100 µM
same,TGI,SNB-75 CNS,> 100 µM
same,TGI,TK-10 renal,> 100 µM
same,TGI,MCF7 breast,> 100 µM
same,TGI,MALME-3M melanoma,> 100 µM
same,TGI,ACHN renal,> 100 µM
same,TGI,NCI-H226 lung,> 100 µM
same,TGI,786-0 renal,> 100 µM
same,TGI,SK-MEL-5 melanoma,> 100 µM
same,TGI,KM12 colon,> 100 µM
same,TGI,U251 CNS,> 100 µM
same,TGI,NCI/ADR-RES ovarian,> 100 µM
same,TGI,COLO 205 colon,> 100 µM
same,TGI,EKVX NSCLC,> 100 µM
same,TGI,OVCAR-8 ovarian,> 100 µM
same,TGI,MOLT-4 leukemia,> 100 µM
same,TGI,OVCAR-4 ovarian,> 100 µM
same,TGI,A498 renal,> 100 µM
same,TGI,NCI-H460 lung,> 100 µM
same,TGI,SK-MEL-2 melanoma,> 100 µM
same,TGI,HCT-116 colon,> 100 µM
same,TGI,OVCAR-3 ovarian,> 100 µM
same,TGI,K-562 leukemia,> 100 µM
same,TGI,CCRF-CEM leukemia,> 100 µM
same,TGI,UO-31 renal,> 100 µM
same,TGI,HS 578T breast,> 100 µM
same,TGI,SF-268 CNS,> 100 µM
same,TGI,HOP-62 NSCLC,> 100 µM
same,TGI,A549 NSCLC,> 100 µM
same,TGI,DU-145 prostate,> 100 µM
same,TGI,IGROV1 ovarian,> 100 µM
same,TGI,SR leukemia,> 100 µM
same,TGI,RPMI-8226 leukemia,> 100 µM
same,TGI,SF-295 CNS,> 100 µM
CCN(CC)C(=O)N[C@@H](Cc1ccccc1)C(=O)NC,TGI,MDA-N,> 100 µM
same,TGI,M14 melanoma,> 100 µM
same,TGI,SN12C renal,> 100 µM
same,TGI,CAKI-1 renal,> 100 µM
same,TGI,HCC-2998 colon,> 100 µM
same,TGI,HCT-15 colon,> 100 µM
same,TGI,SK-MEL-28 melanoma,> 100 µM
same,TGI,UACC-62 melanoma,> 100 µM
same,TGI,SK-OV-3 ovarian,> 100 µM
same,TGI,MDA-MB-435,> 100 µM
same,TGI,LOX IMVI melanoma,> 100 µM
same,TGI,PC-3 prostate,> 100 µM
same,TGI,SW-620 colon,> 100 µM
same,TGI,RXF 393 renal,> 100 µM
same,TGI,T-47D breast,> 100 µM
same,TGI,NCI-H522 lung,> 100 µM
same,TGI,OVCAR-5 ovarian,> 100 µM
same,TGI,BT-549 breast,> 100 µM
same,TGI,MDA-MB-231 breast,> 100 µM
same,TGI,HT29 colon,> 100 µM
same,TGI,SNB-19 CNS,> 100 µM
same,TGI,SNB-75 CNS,> 100 µM
same,TGI,HL-60(TB) leukemia,> 100 µM
same,TGI,MCF7 breast,> 100 µM
same,TGI,MALME-3M melanoma,> 100 µM
same,TGI,ACHN renal,> 100 µM
same,TGI,NCI-H226 lung,> 100 µM
same,TGI,786-0 renal,> 100 µM
same,TGI,SK-MEL-5 melanoma,> 100 µM
same,TGI,KM12 colon,> 100 µM
same,TGI,U251 CNS,> 100 µM
same,TGI,NCI/ADR-RES ovarian,> 100 µM
same,TGI,COLO 205 colon,> 100 µM
same,TGI,EKVX NSCLC,> 100 µM
same,TGI,OVCAR-8 ovarian,> 100 µM
same,TGI,MOLT-4 leukemia,> 100 µM
same,TGI,OVCAR-4 ovarian,> 100 µM
same,TGI,A498 renal,> 100 µM
same,TGI,NCI-H460 lung,> 100 µM
same,TGI,SK-MEL-2 melanoma,> 100 µM
same,TGI,HCT-116 colon,> 100 µM
same,TGI,OVCAR-3 ovarian,> 100 µM
same,TGI,K-562 leukemia,> 100 µM
same,TGI,CCRF-CEM leukemia,> 100 µM
same,TGI,UO-31 renal,> 100 µM
same,TGI,HS 578T breast,> 100 µM
same,TGI,SF-268 CNS,> 100 µM
same,TGI,HOP-62 NSCLC,> 100 µM
same,TGI,A549 NSCLC,> 100 µM
same,TGI,NCI-H23 lung,> 100 µM
same,TGI,DU-145 prostate,> 100 µM
same,TGI,IGROV1 ovarian,> 100 µM
same,TGI,SR leukemia,> 100 µM
same,TGI,RPMI-8226 leukemia,> 100 µM
same,TGI,SF-295 CNS,> 100 µM
NS(=O)(=O)c1ccc(N=Nc2nc3[nH]cnc(=S)c3[nH]2)cc1,TGI,MDA-N,> 38.9 µM
same,TGI,M14 melanoma,> 32.6 µM
same,TGI,SN12C renal,> 40.1 µM
same,TGI,CAKI-1 renal,> 100 µM
same,TGI,HCC-2998 colon,2.83 µM
same,TGI,HCT-15 colon,> 50.9 µM
same,TGI,HOP-92 NSCLC,> 100 µM
same,TGI,SK-MEL-28 melanoma,> 100 µM
same,TGI,UACC-62 melanoma,8.72 µM
same,TGI,MDA-MB-435,> 100 µM
same,TGI,LOX IMVI melanoma,15.4 µM
same,TGI,PC-3 prostate,> 41.4 µM
same,TGI,UACC-257 melanoma,> 87.6 µM
same,TGI,SW-620 colon,> 100 µM
same,TGI,RXF 393 renal,> 22.1 µM
same,TGI,T-47D breast,> 25.3 µM
same,TGI,NCI-H522 lung,10.2 µM
same,TGI,OVCAR-5 ovarian,> 60.2 µM
same,TGI,BT-549 breast,> 37.9 µM
same,TGI,MDA-MB-231 breast,> 25.3 µM
same,TGI,HT29 colon,> 68.2 µM
same,TGI,SNB-19 CNS,> 100 µM
same,TGI,SNB-75 CNS,> 100 µM
same,TGI,HL-60(TB) leukemia,16.7 µM
same,TGI,TK-10 renal,19.3 µM
same,TGI,MCF7 breast,> 100 µM
same,TGI,MALME-3M melanoma,36 µM
same,TGI,ACHN renal,> 100 µM
same,TGI,NCI-H226 lung,> 76.5 µM
same,TGI,786-0 renal,> 100 µM
same,TGI,SK-MEL-5 melanoma,24.8 µM
same,TGI,KM12 colon,> 100 µM
same,TGI,U251 CNS,> 100 µM
same,TGI,NCI/ADR-RES ovarian,14.5 µM
same,TGI,COLO 205 colon,7.09 µM
same,TGI,EKVX NSCLC,> 100 µM
same,TGI,OVCAR-8 ovarian,> 100 µM
same,TGI,MOLT-4 leukemia,4.19 µM
same,TGI,OVCAR-4 ovarian,> 100 µM
same,TGI,A498 renal,98.9 µM
same,TGI,NCI-H460 lung,10.1 µM
same,TGI,HCT-116 colon,16.3 µM
same,TGI,OVCAR-3 ovarian,> 22.5 µM
same,TGI,SF-539 CNS,34.4 µM
same,TGI,K-562 leukemia,> 53.1 µM
same,TGI,CCRF-CEM leukemia,4.21 µM
same,TGI,UO-31 renal,> 43.8 µM
same,TGI,HS 578T breast,> 87 µM
same,TGI,SF-268 CNS,> 100 µM
same,TGI,HOP-62 NSCLC,> 51.1 µM
same,TGI,A549 NSCLC,> 89.6 µM
same,TGI,NCI-H23 lung,14.2 µM
same,TGI,DU-145 prostate,41.1 µM
same,TGI,IGROV1 ovarian,> 100 µM
same,TGI,SR leukemia,1.11 µM
same,TGI,RPMI-8226 leukemia,6.53 µM
same,TGI,SF-295 CNS,> 64.7 µM
